Experimental data taken from patent publication US4883614A, “Phenyl substituted-2,4,6,8-nonatetraenoic acid” (Hoffman-La Roche Inc., priority 1986, dated 1989).
Like-named read-outs stand apart in the source and are kept apart here.

What was measured:
adjuvant arthritis = assay: chronic adjuvant arthritis test in rats (Table I); type: in vivo, male Charles River Lewis rats; conditions: for change in vivo at 95 µmol/kg / change in vivo at 3 µmol/kg: Rattus norvegicus, 552 h; for change in vivo at 3 µmol/kg: oral 3 μMol/Kg
Experimental: That the compounds of this invention are effective anti-arthritic agents can be seen from the results obtained when these compounds are administered to rats in accordance with the chronic adjuvant arthritis test system disclosed in Billingham and Davies "Handbook of Experimental Pharmacology" (editors J.R. Vane and S.H. Ferreira) Vol. 50/II, pg. 108-144, Springer-Verlag, Berlin, 1979).
In this procedure, adjuvant arthritis was induced by the subplantar injection on day o of 0.05 ml of adjuvant [a suspension of heat-killed, dessicated Mycobacterium butyricum, 0.5% (w/v), in heavy mineral oil containing 0.2% digitonin] into the right hind paw of male Charles River Lewis rats (120-140g) that were housed individually and given food and water ad lib. paw volumes (both hind paws) were measured immediately after injection of the adjuvant. paw Volumes were also measured, to follow the development of inflammation-induced swelling in the arthritic paws, at intervals of 3 to 7 days by immersion of the paw to the level of the lateral malleolus in a mercury plethysmograph.
Drugs were administered once a day (starting on the day of adjuvant injection) by […] using Tween 80 (polyoxyethylene sorbitan mono-oleate) at a dose of 0.25 ml/100 g body Weight as the vehicle. Arthritic control rats received daily doses of the vehicle only. On day 23-25, the rats were sacrificed, plasma collected and plasma fibrinogen levels determined (ammonium sulfate turbidimetric method) as described by Exner et al., Amer. J. Clin Path, 71:521-527 (1979). Anti-inflammatory activity of the test drugs were determined by comparing the extent of paw swelling (paw volume on a particular day, i.e. day four to day twenty-five, minus the paw volume on day 0) in drug-treated arthritic rats with the extent of paw swelling in the vehicle-treated arthritic rats. Drug induced decreases in the level of plasma fibrinogen. an acute phase protein that is elevated in the plasma of rats with adjuvant-induced arthritis, were also used to quantitate the anti-inflammatory activity.

[1] = system: type II collagen arthritis; assay: established type II collagen arthritis (Table IV); type: in vivo, male and female Alderley Park Strain 1 rats; conditions: 100 mg.kg^-1 p.o.; male and female rats
Experimental: In all tests, Compound A and the other retinoids tested concurrently were formulated in arachis oil containing 0.05% propylgallate as anti-oxidant. The dose volumes used were 5 ml.kg^-1 for rats and 10 ml.kg^-1 for mice. Controls were dosed with the appropriate volume of arachis oil vehicle.
Animals -- Male and female Alderley Park Strain 1 rats.
Materials -- Type 2 collagen (prepared from bovine nasal septum cartilage), Freunds incomplete adjuvant (Difco).
Method -- Rats were sensitized to type 2 collagen by injecting them intradermally with 1 ml. of a water in oil emulsion consisting of equal parts of a 1 mg.ml^-1 solution of type 2 collagen in 0.45M NaCl, 0.02M Tris, PH 7.4 and Freunds incomplete adjuvant. Rats developing arthritis were allocated on day 15 post sensitization to a control arachis oil treated group (6 male, 4 female) or to the Compound A treated group (6 male, 5 female). Hind paw volume measurements were taken to ensure even distribution of rats between groups. An overnight collection of urine was made on days 15/16 and dosing commenced on day 16. […] Compound A was dosed at 100 mg.kg^-1 p.o. On days 19/20 a second overnight collection of urine was made. […] On day 20 a second hind paw measurement was taken. Rats were then anaesthetised with sodium pentobarbitone, bled, killed and X-rays taken of hind and forepaws. Rats were dosed on days 16-19 inclusive (4 doses).

[2] = system: 4 hr carrageenan pleurisy; assay: 4 hr carrageenan pleurisy, non-immune inflammation (Table V); type: in vivo, female Alderley Park Strain 1 rats; conditions: 10 days
Experimental: Animals -- Female Alderley Park Strain 1 rats weighing 170-205 g. at the start of the experiment were used.
Materials -- Lambda -carrageenan. Prepared as a solution in saline and sterilized by autoclaving.
Method -- Compound A was administered orally to groups of 8 rats once daily for 10 days at doses of 10, 30 and 100 mg.kg^-1. Control animals received the vehicle. One hour after the last dose the animals were anesthetised with methohexitone (Brietal, 50 mg.kg-1) and 0.2 ml of 1% lambda carrageenan was injected into the pleural cavity. Four hours later the animals were killed with an overdose of pentobarbitone (Sagatal), the pleural exudate was collected and the pleural cavity was washed out with 2 ml of phosphate-buffered saline (PB$-A, Oxoid). The exudate volume was recorded and cell counts were determined using an automatic cell counter (Coulter). Differential cell counts were performed on exudate smears stained with Giemsa stain in order to determine separately the numbers of polymorphonuclear leucocytes (PMN) and mononuclear cells (MN).
Immediately after recovery of the pleural exudates the tibiae of the animals were excised and their breaking strains were determined.
The body weights of the animals were recorded daily. Statistical analyses were performed using Student's two-tailed t test.
In the following table the dose is in mg per kg per day.

[3] = system: delayed hypersensitivity to methylated bovine serum albumin (MBSA); assay: MBSA delayed hypersensitivity test (Table II)
Experimental: The dose volumes used were 5 ml.kg^-1 for rats and 10 ml.kg^-1 for mice. Controls were dosed with the appropriate volume of arachis oil vehicle.
Animals -- Male and female MFI mice substrain E33. Initial weight approximately 25 gm.
Materials -- Methylated bovine serum albumin (MBSA) (Sigma) Freunds complete adjuvant (Difco)
Method -- Groups of 10 mice were sensitized (day 0) by injecting intradermally at two abdominal. sites 0.05 ml. of a water in oil emulsion of MBSA and Freunds complete adjuvant. On day 9 the mice were challenged by injecting 20 l of a 1% MBSA solution to one paw and 20 l of water into the contralateral paw. Paw volumes were measured 24 hours later by mercury displacement plethysmography. The means percentage increase in paw volume of the MBSA-challenged paw compared with the water challenged paw was calculated for each treatment group. Dosing with vehicle and retinold commenced on day 0 and finished on day 9.

[4] = system: adjuvant arthritis in the rat; assay: developing adjuvant arthritis in the rat (Table III); type: in vivo, AHH/R female rats (PVG derived); conditions: 15 mg.kg^-1 p.o.
Experimental: Animals--AHH/R Female rats (PVG derived with an initial weight range of 110 to 140 g. were used.
Materials--Adjuvant for injection. An homogenized suspension of heat killed M. tuberculosis (Human strains C, DT and PN), 5 mg.Ml^-1 in liquid Paraffin was Prepared.
Method Rats were randomly split into groups of five and adjuvant arthritis was induced by the sub-plantar injection of 0.1 ml of adjuvant susPension into the right hind paw of each rat. Test compounds were administered by intubation each morning commencing the day of adjuvant injection. Two groups of control rats were dosed with the vehicle as was a group of three normal rats included for comparative purposes. Dosing was carried out daily until the end of the test on day 15 except for the first weekend (days 5 & 6). Treatment groups are shown in Table III and include etretinate as standard retinoid.
Measurements of right hind paw volume were made initially and on days 2 and 4 after and adjufant injection (primary phase). Right and left hind paw volume were then measured on day 8 and every two or three days until the end of the experiment on day 15 (secondary phase). At this time the mobility of each ankle joint and the
incidence and severity of secondary lesions on nose, ears, forepaws, left hind paw and tail were also assessed in terms of degrees of flexion possible and by using an arbitrary scoring system, respectively.
The time course curves for the injected paws were integrated from days 0 to 4 to reflect primary swelling and from days 8 to 15 (secondary swelling). The secondary swelling in the non-injected paw was integrated similarly from days 8 to 15. Calculations were carried out using a specific computer program which computed mean ± se for each integrated area. The significance of differences from controls was determined by Student s t test (2 tailed) and percentage reductions from control areas were calculated. Percentage improvements in joint mobility and percentage reductions in lesion score were also determined. In the latter case the Wilcoxon rank sum test (2 tailed) was used to express the difference from the control score using raw data. Mean body weight change in each group was recorded.

CCCCCCCCCOc1ccc(OC)cc1/C=C/C(C)=C/C=C/C(C)=C/C(=O)O
Body Weight Gain (adjuvant arthritis; oral 75 μMol/Kg): +27 g

CCCCCCCCNc1ccccc1/C=C/C(C)=C/C=C/C(C)=C/C(=O)OCC
Body Weight Gain (adjuvant arthritis; oral 75 μMol/Kg): +24 g

CCCCCCCCCOc1cccc(Cl)c1/C=C/C(C)=C/C=C/C(C)=C/C(=O)O
Body Weight Gain (adjuvant arthritis; oral 75 μMol/Kg): +35 g

CC(/C=C/c1ccccc1OCCCCCCCCO)=C\C=C\C(C)=C\C(=O)O
change in vivo at 95 µmol/kg (adjuvant arthritis; oral 95 μMol/Kg, read-out: % Reduction in Paw Volume On day 23, Left): -49% | change in vivo at 95 µmol/kg (adjuvant arthritis; oral 95 μMol/Kg, read-out: % Reduction in Paw Volume On day 23, Right): -37% | Body Weight Gain (adjuvant arthritis; oral 95 μMol/Kg): +27 g | Plasma fibrinogen % change (reduction) (adjuvant arthritis; oral 95 μMol/Kg): -35%

CCCCCCCCCOc1cccc(F)c1/C=C/C(C)=C/C=C/C(C)=C/C(=O)O
Body Weight Gain (adjuvant arthritis; oral 75 μMol/Kg): +46 g

CCCCCCCCCOc1ccccc1/C=C/C(C)=C/C=C/C(C)=C/C(=O)O [Compound A, All(E)-9-[2-(nonyloxy)phenyl]-3,7-dimethyl-2,4,6,8-nonatetraenoic acid]
weight during treatment (in words) [1]: Both male and female rats lost weight | Tibial Breaking Strain (Right + Left) % change ([2]; 10 mg/kg/day p.o.): -3.4% | Tibial Breaking Strain (Right + Left) Mean ([2]; 10 mg/kg/day p.o.): 6.5 kg | Tibial Breaking Strain (Right + Left) % change ([2]; 30 mg/kg/day p.o.): +1.5% | Tibial Breaking Strain (Right + Left) Mean ([2]; 30 mg/kg/day p.o.): 6.8 kg | Tibial Breaking Strain (Right + Left) % change ([2]; 100 mg/kg/day p.o.): -0.3% | Tibial Breaking Strain (Right + Left) Mean ([2]; 100 mg/kg/day p.o.): 6.7 kg | Mean body weight ([3]; 10 mg.kg^-1 oral, female (F)): -0.2 g | Mean body weight ([3]; 10 mg.kg^-1 oral, male (M)): 3.3 g | Mean body weight ([3]; 30 mg.kg^-1 oral, female (F)): 0.5 g | Mean body weight ([3]; 30 mg.kg^-1 oral, male (M)): 2.8 g | Mean body weight ([3]; 100 mg.kg^-1 oral, female (F)): -0.2 g | Mean body weight ([3]; 100 mg.kg^-1 oral, male (M)): 3.3 g

CCOC(=O)/C=C(C)/C=C/C=C(C)/C=C/c1c(C)cc(OC)c(C)c1C [Etretinate, etretinate]
Joint Mobility (% INC) [4]: 50% | Lesion Score (% RDN) [4]: 56% | % reduction of paw swelling, Secondary (left) ([4]; days 8-15): 30% | % reduction of paw swelling, Secondary (right) ([4]; days 8-15): 67% | % (cf. arachis oil control) ([3]; 10 mg.kg^-1 oral, 10 doses): 46% | Mean body weight ([3]; 10 mg.kg^-1 oral, female (F)): -2.0 g | Mean body weight ([3]; 10 mg.kg^-1 oral, male (M)): -0.8 g

COc1ccc2c(c1)c(CC(=O)O)c(C)n2C(=O)c1ccc(Cl)cc1 [Indomethacin, reference compound]
change in vivo at 3 µmol/kg (adjuvant arthritis; read-out: % Reduction in Paw Volume On day 23, Left): -67% | change in vivo at 3 µmol/kg (adjuvant arthritis; read-out: % Reduction in Paw Volume On day 23, Right): -66%

CCCCCCCCCOc1ccccc1/C=C/C(C)=C/C=C/C(C)=C/C(=O)O [drawing 6]
Body Weight Gain (adjuvant arthritis; oral 76 μMol/Kg): +27 g

CC1=C(/C=C/C(C)=C/C=C/C(C)=C\C(=O)O)C(C)(C)CCC1 [reference compound]
Body Weight Gain (adjuvant arthritis; oral 60 μMol/Kg): -7 g
